Experimental data from paper PMC11374718, “Unlocking opioid neuropeptide dynamics with genetically encoded biosensors” (Nature Neuroscience, 2024).
Where two headings read alike, the source gives them in different places. Where no end group is shown, it is not given here.

Tests used:
µLight [1] = molecular target: µLight (Homo sapiens, UniProt P35372, V175Q); assay: biochemical; format: binding
κLight1.3 [2] = molecular target: T1, κLight1.3 (Homo sapiens, UniProt P41145, INS261[…]/L259S/S262L/V164K); format: cell-based; conditions: for EC50: read-out: κLight EC50
T1 construct: TlcnC (telencephalin) tag (C); PRC tag (C); ER2 (ER export motif FCYENEV) tag (C); expressed in transfected cells; dissociated hippocampal neurons (AAV9-hSyn); mouse brain (AAV9-hSyn)
Target sequence in this assay (P41145 with tags, fused parts or gaps V164K/L259S/INS261[withheld]/S262L): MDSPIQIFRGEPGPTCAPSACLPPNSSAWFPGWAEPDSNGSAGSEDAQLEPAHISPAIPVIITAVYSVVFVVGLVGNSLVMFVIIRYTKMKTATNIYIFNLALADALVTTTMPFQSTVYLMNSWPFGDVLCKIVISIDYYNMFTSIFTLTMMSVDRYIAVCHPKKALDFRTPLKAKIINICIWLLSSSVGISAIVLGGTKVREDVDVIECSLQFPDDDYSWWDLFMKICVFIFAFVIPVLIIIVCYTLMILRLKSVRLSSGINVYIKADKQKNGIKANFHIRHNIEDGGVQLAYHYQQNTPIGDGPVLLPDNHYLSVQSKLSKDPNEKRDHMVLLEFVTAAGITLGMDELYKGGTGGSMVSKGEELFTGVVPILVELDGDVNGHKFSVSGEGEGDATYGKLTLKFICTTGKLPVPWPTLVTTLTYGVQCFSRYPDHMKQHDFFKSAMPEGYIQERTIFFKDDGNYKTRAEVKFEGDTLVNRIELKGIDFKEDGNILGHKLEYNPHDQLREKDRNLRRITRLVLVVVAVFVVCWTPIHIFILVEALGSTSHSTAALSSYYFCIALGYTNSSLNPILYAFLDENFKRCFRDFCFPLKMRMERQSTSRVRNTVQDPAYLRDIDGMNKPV

µLight [3] = molecular target: µLight (Homo sapiens, UniProt P35372, INS270[…]/V175Q); format: cell-based; conditions: for EC50: read-out: μLight EC50
µLight (Homo sapiens, UniProt P35372, INS270[…]/V175Q), sequence (P35372 with tags, fused parts or gaps V175Q/INS270[withheld]): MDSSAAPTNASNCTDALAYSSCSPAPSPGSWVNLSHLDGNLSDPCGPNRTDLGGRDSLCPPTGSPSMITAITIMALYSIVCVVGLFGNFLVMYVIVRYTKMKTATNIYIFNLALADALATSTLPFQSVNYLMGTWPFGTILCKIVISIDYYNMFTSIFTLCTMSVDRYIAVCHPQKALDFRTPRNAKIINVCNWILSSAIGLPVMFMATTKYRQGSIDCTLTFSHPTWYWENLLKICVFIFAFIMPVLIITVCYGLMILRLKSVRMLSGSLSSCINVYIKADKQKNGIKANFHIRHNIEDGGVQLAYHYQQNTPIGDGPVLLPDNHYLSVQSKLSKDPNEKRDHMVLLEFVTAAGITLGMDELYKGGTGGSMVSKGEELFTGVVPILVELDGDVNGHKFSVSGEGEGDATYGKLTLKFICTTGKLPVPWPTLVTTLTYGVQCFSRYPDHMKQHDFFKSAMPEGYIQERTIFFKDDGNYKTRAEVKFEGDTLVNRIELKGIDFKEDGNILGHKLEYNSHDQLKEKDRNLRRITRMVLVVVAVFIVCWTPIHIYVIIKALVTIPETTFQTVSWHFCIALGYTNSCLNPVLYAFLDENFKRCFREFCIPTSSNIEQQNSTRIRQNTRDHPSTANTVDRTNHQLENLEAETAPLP

δLight [4] = conditions: read-out: δLight EC50 in neurons; dissociated hippocampal neurons
κLight1.3a [5] = assay: in situ titration in dissociated hippocampal neurons expressing κLight1.3a; format: cell-based, human
κLight1.3 [6] = molecular target: T1, κLight1.3; format: cell-based; conditions: read-out: κLight1.3 EC50 in neurons; dissociated hippocampal neurons
κLight = molecular target: T2, κLight (Homo sapiens, UniProt P41145, INS261[…]/L259S/S262L/V164K); assay: [3H]diprenorphine displacement binding, κLight cell membranes; conditions: read-out: κLight IC50
T2 construct: TlcnC (telencephalin) tag (C); PRC tag (C); ER2 (ER export motif FCYENEV) tag (C); expressed in transfected cells; dissociated hippocampal neurons (AAV9-hSyn); mouse brain (AAV9-hSyn)

κLight1.3a [7] = assay: two-photon imaging of κLight1.3a response to electrical stimulation in hippocampal CA3 slices; parameters: species or system mouse; conditions: antagonist 100 µM, n = 3 slices
κLight1.3 [8] = molecular target: T1, κLight1.3; format: cell-based
Target sequence in this assay (P41145 with tags, fused parts or gaps V164K/L259S/INS261[withheld]/S262L): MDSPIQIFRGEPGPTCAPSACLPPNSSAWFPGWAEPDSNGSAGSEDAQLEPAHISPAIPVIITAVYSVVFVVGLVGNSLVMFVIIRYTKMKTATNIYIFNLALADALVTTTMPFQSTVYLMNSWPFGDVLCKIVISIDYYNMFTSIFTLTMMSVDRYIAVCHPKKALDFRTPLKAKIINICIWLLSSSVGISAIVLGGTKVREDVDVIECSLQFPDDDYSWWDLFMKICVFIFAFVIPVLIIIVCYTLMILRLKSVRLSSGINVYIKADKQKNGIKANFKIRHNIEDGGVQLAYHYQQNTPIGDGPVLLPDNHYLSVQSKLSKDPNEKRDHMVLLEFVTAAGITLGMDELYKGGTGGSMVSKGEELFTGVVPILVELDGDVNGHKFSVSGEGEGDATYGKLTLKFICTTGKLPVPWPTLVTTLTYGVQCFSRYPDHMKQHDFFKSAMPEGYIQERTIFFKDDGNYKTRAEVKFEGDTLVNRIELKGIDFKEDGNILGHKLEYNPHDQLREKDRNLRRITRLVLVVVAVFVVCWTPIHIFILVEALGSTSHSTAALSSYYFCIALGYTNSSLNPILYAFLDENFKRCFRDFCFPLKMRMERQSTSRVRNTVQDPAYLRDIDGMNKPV

δLight0 = molecular target: T3, δLight0 (Homo sapiens, UniProt P41143, D128N/G248L/INS249[…]/V154K); assay: in vivo fiber photometry of control sensor δLight0 upon i.p. drug injection; parameters: species or system mouse; conditions: 5 mg/kg SNC162, n = 4 animals
T3 construct: ER2 tag (ER export motif FCYENEV) (C); PRC (proximal restriction and clustering) tag, after a GS linker (C); expressed in transfected cells; host or cells: mouse brain neurons (ARC; NAc) transduced in vivo with AAV-hSyn-δLight0
T3 sequence (P41143 with tags, fused parts or gaps, stated change not applied): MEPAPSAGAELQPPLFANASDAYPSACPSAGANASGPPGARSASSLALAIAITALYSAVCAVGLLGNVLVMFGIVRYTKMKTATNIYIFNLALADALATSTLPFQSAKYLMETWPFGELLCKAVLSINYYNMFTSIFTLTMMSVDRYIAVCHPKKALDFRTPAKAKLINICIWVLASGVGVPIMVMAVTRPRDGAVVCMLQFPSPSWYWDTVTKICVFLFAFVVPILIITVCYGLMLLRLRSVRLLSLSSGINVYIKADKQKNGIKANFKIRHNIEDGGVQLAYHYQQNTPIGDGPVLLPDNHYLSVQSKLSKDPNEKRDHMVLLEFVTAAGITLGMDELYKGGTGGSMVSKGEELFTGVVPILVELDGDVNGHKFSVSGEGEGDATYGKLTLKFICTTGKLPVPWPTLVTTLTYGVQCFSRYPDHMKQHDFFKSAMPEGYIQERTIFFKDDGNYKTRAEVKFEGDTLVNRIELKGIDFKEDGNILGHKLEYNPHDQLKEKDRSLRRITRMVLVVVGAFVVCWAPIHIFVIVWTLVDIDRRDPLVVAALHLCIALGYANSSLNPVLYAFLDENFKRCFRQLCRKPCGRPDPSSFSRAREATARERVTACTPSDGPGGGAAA
Description: (§1) We next determined if κLight and δLight can be activated by systemic administration of exogenous small-molecule drugs in vivo. We injected AAV9-hSyn encoding κLight1.3 or δLight, and κLight0 or δLight0 in the arcuate nucleus (ARC) of the hypothalamus, hippocampal CA3 region[43] and NAc[30], areas abundant in κOR and δOR. We next implanted fiber-optic ferrules above each injection site and recorded the fluorescence of κLight and δLight upon intraperitoneal (i.p.) injection of opioid receptor-selective ligands using fiber photometry (Fig. 4a and Extended Data Fig. 4h–j).
(§2) For fiber photometry studies, recordings were obtained throughout the entirety of drug injection, Pavlovian conditioning and head-fixed sessions as previously described. […] Laser intensity for the 470-nm- and 405-nm-wavelength bands were measured at the tip of the optic fiber and adjusted to 50 μW before each day of recording. κLight1.3 fluorescence traveled through the same optic fiber before being bandpass filtered (525 ± 25 nm, Doric, FMC4), transduced by a femtowatt silicon photoreceiver (Newport, 2151) and recorded by a real-time processor (TDT, RZ5P). […]
Custom MATLAB scripts were developed for analyzing fiber photometry data in the context of mouse behavior. […] After baseline correction, the photometry trace was z-scored relative to the mean and standard deviation of the session. […]

δLight [9] = molecular target: T4, δLight (Homo sapiens, UniProt P41143, G248L/INS249[…]/V154K); format: in vivo, mouse
T4 construct: PRC tag (C); ER2 (ER export motif) tag (C); expressed in transfected cells; dissociated hippocampal neurons (AAV9-hSyn); mouse brain (AAV9-hSyn)
T4 sequence (P41143 with tags, fused parts or gaps, stated change not applied): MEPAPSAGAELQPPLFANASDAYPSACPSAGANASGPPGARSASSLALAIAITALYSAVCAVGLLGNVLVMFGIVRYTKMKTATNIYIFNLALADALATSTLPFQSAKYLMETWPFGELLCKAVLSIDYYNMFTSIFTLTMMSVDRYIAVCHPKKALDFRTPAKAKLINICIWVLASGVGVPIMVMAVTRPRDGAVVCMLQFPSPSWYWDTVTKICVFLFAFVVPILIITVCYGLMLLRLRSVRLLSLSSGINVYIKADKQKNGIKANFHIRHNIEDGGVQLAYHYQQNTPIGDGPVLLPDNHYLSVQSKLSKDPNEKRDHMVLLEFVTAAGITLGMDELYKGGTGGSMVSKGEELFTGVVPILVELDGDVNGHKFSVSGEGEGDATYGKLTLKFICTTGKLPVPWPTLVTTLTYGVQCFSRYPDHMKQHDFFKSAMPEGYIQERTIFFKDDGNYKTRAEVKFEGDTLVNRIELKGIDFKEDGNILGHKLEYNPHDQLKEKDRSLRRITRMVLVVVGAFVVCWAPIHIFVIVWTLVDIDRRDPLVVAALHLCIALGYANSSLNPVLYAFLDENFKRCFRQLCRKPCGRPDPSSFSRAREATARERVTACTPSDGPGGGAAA
Description: as §1
as §2, with “described. Before recording, an optic fiber was attached to the implanted fiber using a ferrule sleeve (Doric, ZR_2.5). Two LEDs were used to excite κLight1.3.” for “described.”
Custom MATLAB scripts were developed for analyzing fiber photometry data in the context of mouse behavior. […] After baseline correction, the photometry trace was z-scored relative to the mean and standard deviation of the session. The post-processed fiber photometry signal was analyzed in the context of animal behavior during Pavlovian conditioning and operant task performance. […] Peak, mean and minimum fluorescence was determined during predetermined time windows for the injection period (0–5 min), reward period (5–20 s), release period (0–20 s) or artifact period (0–20 s) subtracted from peak, mean or minimum fluorescence values in a baseline window (−5 to 0 s). […]

δLight [10] = conditions: neuron cultures; 100 μM ME then 1 mM naloxone

µLight (Homo sapiens, UniProt P35372, V175Q), sequence (P35372 whole entry V175Q, looked up): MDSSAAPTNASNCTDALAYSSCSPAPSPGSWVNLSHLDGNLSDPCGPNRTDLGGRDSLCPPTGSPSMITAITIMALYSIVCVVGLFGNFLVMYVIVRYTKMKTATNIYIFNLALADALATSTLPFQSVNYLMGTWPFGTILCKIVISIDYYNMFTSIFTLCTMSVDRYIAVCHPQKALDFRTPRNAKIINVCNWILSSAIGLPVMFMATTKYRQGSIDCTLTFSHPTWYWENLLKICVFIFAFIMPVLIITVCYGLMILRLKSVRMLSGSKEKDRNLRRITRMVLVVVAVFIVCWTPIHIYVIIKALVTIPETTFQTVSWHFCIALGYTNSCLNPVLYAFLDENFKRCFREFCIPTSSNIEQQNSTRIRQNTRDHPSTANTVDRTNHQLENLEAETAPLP

Molecule: C[C@@H](NC(=O)[C@@H](N)Cc1ccc(O)cc1)C(=O)NCC(=O)N(C)[C@@H](Cc1ccccc1)C(=O)NCCO [DAMGO]
- μLight % bound at 10 μM (µLight [1]): 79±3%
- Normalized ΔF/F of κLight1.3 (κLight1.3 [2]): 0.17 ± 0.03
- μLight ΔF/F max (%) (µLight [3]): 50.5±1.95%

Molecule: CC1(C)SSC(C)(C)[C@@H](NC(=O)[C@@H](N)Cc2ccc(O)cc2)C(=O)NCC(=O)N[C@@H](Cc2ccccc2)C(=O)N[C@H]1C(=O)O [DPDPE]
- Normalized ΔF/F of κLight1.3 (κLight1.3 [2]): 0.19 ± 0.04
- κLight ΔF/F max (%) (κLight1.3 [2]): 20.5±1.67%

Molecule: CC(C)[C@H](NC(=O)[C@H](CC(=O)O)NC(=O)[C@H](Cc1ccccc1)NC(=O)[C@@H](C)NC(=O)[C@@H](N)Cc1ccc(O)cc1)C(=O)N[C@H](C(=O)NCC(N)=O)C(C)C [Deltorphin I]
- Normalized ΔF/F of κLight1.3 (κLight1.3 [2]): 0.26 ± 0.02

Molecule: CC[C@H](C)[C@H](NC(=O)[C@H](CCCNC(=N)N)NC(=O)[C@H](CCCNC(=N)N)NC(=O)[C@H](CC(C)C)NC(=O)[C@H](Cc1ccccc1)NC(=O)CNC(=O)CNC(=O)[C@@H](N)Cc1ccc(O)cc1)C(=O)O [DynA8, dynorphin A1-8]
- IC50 (µLight [1]): 48 ± 2 nM
- μLight % bound at 10 μM (µLight [1]): 58±2%
- Normalized ΔF/F of κLight1.3 (κLight1.3 [2]): 0.61 ± 0.04

Molecule: CC[C@H](C)[C@H](NC(=O)[C@H](CCCNC(=N)N)NC(=O)[C@H](CCCNC(=N)N)NC(=O)[C@H](CC(C)C)NC(=O)[C@H](Cc1ccccc1)NC(=O)CNC(=O)CNC(=O)[C@@H](N)Cc1ccc(O)cc1)C(=O)N[C@@H](CCCNC(=N)N)C(=O)N1CCC[C@H]1C(=O)N[C@@H](CCCCN)C(=O)N[C@@H](CC(C)C)C(=O)N[C@@H](CCCCN)C(=O)O [DynA13, dynorphin A1-13]
- EC50 (δLight [4]): 562 nM
- EC50 (κLight1.3a [5]): 35.4 nM
- EC50 (κLight1.3 [2]): 0.0898 nM
- EC50 (κLight1.3 [6]): 19.2 nM

Molecule: CC(C)C[C@H](NC(=O)[C@H](Cc1ccccc1)NC(=O)CNC(=O)CNC(=O)[C@@H](N)Cc1ccc(O)cc1)C(=O)O [LE, Leu-enkephalin]
- Normalized ΔF/F of κLight1.3 (κLight1.3 [2]): 0.24 ± 0.02

Molecule: CSCC[C@H](NC(=O)[C@H](Cc1ccccc1)NC(=O)CNC(=O)CNC(=O)[C@@H](N)Cc1ccc(O)cc1)C(=O)O [ME, met-enkephalin]
- IC50 (κLight): 130 ± 3 nM
- EC50 (κLight1.3a [5]): 9650 nM
- Normalized ΔF/F of κLight1.3 (κLight1.3 [2]): 0.18 ± 0.005
- EC50 (κLight1.3 [2]): 6640 nM
- EC50 (κLight1.3 [6]): 52100 nM

Molecule: CN(C(=O)/C=C/c1ccoc1)[C@@H]1CC[C@@]2(O)[C@H]3Cc4ccc(O)c5c4[C@@]2(CCN3CC2CC2)[C@H]1O5 [Nalfurafine, nalfurafine]
- Normalized ΔF/F of κLight1.3 (κLight1.3 [2]): 1.91 ± 0.09

Molecule: Oc1ccc2c3c1O[C@H]1c4[nH]c5c(c4C[C@@]4(O)[C@@H](C2)N(CC2CC2)CC[C@]314)C[C@@]1(O)[C@H]2Cc3ccc(O)c4c3[C@@]1(CCN2CC1CC1)[C@H]5O4 [Nor-BNI, nor-binaltorphimine]
- peak ΔF/F of κLight1.3a to 15 electrical stimuli in presence of antagonist (κLight1.3a [7]): 1.57% ± 1.2
- pA2 at κLight1.3 (κLight1.3 [8]): 8.28

Molecule: COc1ccc2c3c1O[C@H]1C(=O)CC[C@@]4(O)[C@@H](C2)N(C)CC[C@]314 [Oxycodone, oxycodone]
- μLight % bound at 10 μM (µLight [1]): 32±3%
- Normalized ΔF/F of κLight1.3 (κLight1.3 [2]): 0.16 ± 0.04
- µLight fluorescence response (µLight [3]): suppressed
- μLight ΔF/F max (%) (µLight [3]): -12.8±2.78%

Molecule: C=CCN1C[C@H](C)N([C@@H](c2ccccc2)c2ccc(C(=O)N(CC)CC)cc2)C[C@H]1C [SNC162]
- peak z-score of δLight0 (δLight0; ARC (panel j)): 0.77 ± 0.5%
- peak z-score of δLight0 (δLight0; ARC as printed (panel l)): −0.61 ± 0.4%
- z-score peak of δLight (δLight [9]; ARC, SNC162 2.25 mg per kg): 2.4 ± 1.0
- z-score peak of δLight (δLight [9]; ARC, SNC162 5 mg per kg): 7.28 ± 2.4
- z-score peak of δLight (δLight [9]; NAc, SNC162 5 mg per kg): 7.45 ± 2.20
- Normalized ΔF/F of κLight1.3 (κLight1.3 [2]): 0.009 ± 0.02
- κLight ΔF/F max (%) (κLight1.3 [2]): 12.2±2.39%
- EC50 (κLight1.3 [2]): 8280 nM
- μLight ΔF/F max (%) (µLight [3]): 2.9±1.69%
- EC50 (µLight [3]): 87.3 nM

Molecule: C=CCN1CC[C@]23c4c5ccc(O)c4O[C@H]2C(=O)CC[C@@]3(O)[C@H]1C5 [naloxone]
- δLight ΔF/F, + antagonist response (δLight [10]): 1.82 ± 2.4%

Molecule: CC[C@H](C)[C@H](NC(=O)[C@H](C)NC(=O)[C@H](CC(N)=O)NC(=O)[C@H](CCCCN)NC(=O)[C@H](Cc1ccccc1)NC(=O)[C@H](CC(C)C)NC(=O)[C@@H](NC(=O)[C@@H](NC(=O)[C@H](CC(C)C)NC(=O)[C@@H]1CCCN1C(=O)[C@@H](NC(=O)[C@H](CCC(N)=O)NC(=O)[C@H](CO)NC(=O)[C@H](CCCCN)NC(=O)[C@H](CCC(=O)O)NC(=O)[C@H](CO)NC(=O)[C@@H](NC(=O)[C@H](CCSC)NC(=O)[C@H](Cc1ccccc1)NC(=O)CNC(=O)CNC(=O)[C@@H](N)Cc1ccc(O)cc1)[C@@H](C)O)[C@@H](C)O)C(C)C)[C@@H](C)O)C(=O)N[C@H](C(=O)N[C@@H](CCCCN)C(=O)N[C@@H](CC(N)=O)C(=O)N[C@@H](C)C(=O)N[C@@H](Cc1ccc(O)cc1)C(=O)N[C@@H](CCCCN)C(=O)N[C@@H](CCCCN)C(=O)NCC(=O)N[C@@H](CCC(=O)O)C(=O)O)[C@@H](C)CC [β-endorphin]
- EC50 (δLight [4]): 217 nM
- EC50 (κLight1.3a [5]): 2710 nM
- μLight % bound at 10 μM (µLight [1]): 46±3%
- Normalized ΔF/F of κLight1.3 (κLight1.3 [2]): 0.21 ± 0.01

Molecule: ICI 174864
- peak ΔF/F of κLight1.3a to 15 electrical stimuli in presence of antagonist (κLight1.3a [7]): 6.44% ± 0.3
- antagonism of κLight activation by DynA13 (κLight1.3 [8]): did not observe apparent antagonism

Molecule: YGGFLRKYP [β-neoendorphin]
- IC50 (κLight): 13 ± 2 nM
- Normalized ΔF/F of κLight1.3 (κLight1.3 [2]): 0.26 ± 0.03
- EC50 (κLight1.3 [2]): 25.9 nM
- EC50 (µLight [3]): 6310 nM

Molecule: YGGFLRRQF [DynB9, Dynorphin B9]
- Normalized ΔF/F of κLight1.3 (κLight1.3 [2]): 0.97 ± 0.03
- EC50 (κLight1.3 [2]): 10 nM
- EC50 (µLight [3]): 3760 nM

Molecule: YGGFMRRVGRPEWWMDYQ [BAM18]
- IC50 (κLight): 243 ± 2 nM
- IC50 (µLight [1]; read-out: μLight IC50): 14 ± 2 nM
- Normalized ΔF/F of κLight1.3 (κLight1.3 [2]): 0.48 ± 0.03
- EC50 (κLight1.3 [2]): 35.6 nM
- EC50 (µLight [3]): 186 nM

Molecule: YGGFMRRVGRPEWWMDYQKRYGGFL [Peptide E]
- IC50 (κLight): 252 ± 2 nM
- μLight % bound at 10 μM (µLight [1]): 65±2%
- IC50 (µLight [1]; read-out: μLight IC50): 154 ± 2 nM
